Earlier results on one compound are cited in patent US20070015926A1, “Method of preparing R-(+)-alpha-lipoic acid and its salt” (Nanjing Rally Biochemical Inc., priority 2005, published 2007).

Each structure is given as a SMILES string.

The conditions of the series: if given adequate oxygen.

Consider `O=C(O)CCCC[C@@H]1CCSS1` [R-(+)-α-Lipoic Acid], for which the polymerization result is given as “susceptible to be polymerized”.
